Reference: the supplement of paper PMC10307832

Legend:
Test in all cases: relative viability (nuclei count vs DMSO), 5 days (fraction); higher = more cells survive
HCC-15 = system: HCC-15
In short: (§1)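 One day after seeding in 1536-well plates, lung cancer cell lines were dosed by pin tool. Dosing was either single-drug or a fixed anchor-drug dose plus five library-drug doses (not always all listed) in √10 steps. After 5 days, nuclei were stained in one fix-and-stain step and counted on 4× images, and relative viability is the nuclei count of treated wells over that of vehicle wells, given as the median of duplicate plates.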

LCLC-103H = system: LCLC-103H
In short: as §1

NCI-H1648 = system: NCI-H1648
In short: as §1

NCI-H522 = system: NCI-H522
In short: as §1

UMC-11 = system: UMC-11
In short: as §1

A549 = system: A549
In short: as §1

IA-LM = system: IA-LM
In short: as §1

Structure (SMILES) | relative viability (HCC-15; first compound 0.005 µM) | relative viability (HCC-15; first compound 0.01581 µM) | relative viability (HCC-15; first compound 0.05 µM) | relative viability (HCC-15; first compound 0.1581 µM) | relative viability (HCC-15; first compound 0.5 µM) | relative viability (LCLC-103H; first compound 0.005 µM) | relative viability (LCLC-103H; first compound 0.01581 µM) | relative viability (LCLC-103H; first compound 0.05 µM) | relative viability (LCLC-103H; first compound 0.1581 µM) | relative viability (LCLC-103H; first compound 0.5 µM) | relative viability (NCI-H1648; first compound 0.005 µM) | relative viability (NCI-H1648; first compound 0.01581 µM) | relative viability (NCI-H1648; first compound 0.1581 µM) | relative viability (NCI-H1648; first compound 0.5 µM) | relative viability (NCI-H522; first compound 0.005 µM) | relative viability (NCI-H522; first compound 0.01581 µM) | relative viability (NCI-H522; first compound 0.05 µM) | relative viability (NCI-H522; first compound 0.1581 µM) | relative viability (NCI-H522; first compound 0.5 µM) | relative viability (UMC-11; first compound 0.005 µM) | relative viability (UMC-11; first compound 0.01581 µM) | relative viability (UMC-11; first compound 0.05 µM) | relative viability (UMC-11; first compound 0.1581 µM) | relative viability (UMC-11; first compound 0.5 µM) | relative viability (A549; first compound 0.005 µM) | relative viability (A549; first compound 0.01581 µM) | relative viability (A549; first compound 0.05 µM) | relative viability (A549; first compound 0.1581 µM) | relative viability (A549; first compound 0.5 µM) | relative viability (IA-LM; first compound 0.005 µM) | relative viability (IA-LM; first compound 0.01581 µM) | relative viability (IA-LM; first compound 0.05 µM) | relative viability (IA-LM; first compound 0.1581 µM) | relative viability (IA-LM; first compound 0.5 µM)
CC1(C)CCC(c2ccc(Cl)cc2)=C(CN2CCN(c3ccc(C(=O)NS(=O)(=O)c4ccc(N[C@H](CCN5CCOCC5)CSc5ccccc5)c(S(=O)(=O)C(F)(F)F)c4)cc3)CC2)C1 [Navitoclax] + CC(=O)c1c(C)c2cnc(Nc3ccc(N4CCNCC4)cn3)nc2n(C2CCCC2)c1=O [Palbociclib] (partner 0.5 µM) | 0.738 | 0.77 | 0.655 | 0.773 | 0.687 | 0.453 | 0.487 | 0.486 | 0.443 | 0.418 | 0.274 | 0.269 | 0.289 | 0.328 | 1.02 | 1.05 | 1.06 | 0.735 | 0.942 | 0.388 | 0.305 | 0.333 | 0.322 | 0.319 |  |  |  |  |  |  |  |  |  | 
CC1(C)CCC(c2ccc(Cl)cc2)=C(CN2CCN(c3ccc(C(=O)NS(=O)(=O)c4ccc(N[C@H](CCN5CCOCC5)CSc5ccccc5)c(S(=O)(=O)C(F)(F)F)c4)cc3)CC2)C1 [Navitoclax] + Nc1nc2[nH]cc(CCc3ccc(C(=O)N[C@@H](CCC(=O)O)C(=O)O)cc3)c2c(=O)[nH]1 [Pemetrexed] (partner 0.2 µM) | 0.227 | 0.26 | 0.218 | 0.228 | 0.229 | 0.473 | 0.425 | 0.401 | 0.442 | 0.368 | 0.868 | 0.747 | 0.563 | 0.833 | 1.07 | 1.28 | 0.885 | 1.11 | 1.13 | 0.79 | 0.822 | 0.821 | 0.759 | 0.444 |  |  |  |  |  |  |  |  |  | 
CC1(C)CCC(c2ccc(Cl)cc2)=C(CN2CCN(c3ccc(C(=O)NS(=O)(=O)c4ccc(N[C@H](CCN5CCOCC5)CSc5ccccc5)c(S(=O)(=O)C(F)(F)F)c4)cc3)CC2)C1 [Navitoclax] + Nc1ncn([C@H]2C[C@H](O)[C@@H](CO)O2)c(=O)n1 [Decitabine] (partner 2 µM) | 0.64 | 0.652 | 0.386 | 0.625 | 0.411 | 0.701 | 0.879 | 0.764 | 0.703 | 0.698 | 0.528 | 0.511 | 0.518 | 0.44 | 0.685 | 0.696 | 0.699 | 0.547 | 0.712 | 0.707 | 0.635 | 0.616 | 0.547 | 0.609 | 0.252 | 0.249 | 0.204 | 0.271 | 0.246 |  |  |  |  | 
CC1(C)CCC(c2ccc(Cl)cc2)=C(CN2CCN(c3ccc(C(=O)NS(=O)(=O)c4ccc(N[C@H](CCN5CCOCC5)CSc5ccccc5)c(S(=O)(=O)C(F)(F)F)c4)cc3)CC2)C1 [Navitoclax] + O=C(CCCCCCC(=O)Nc1ccccc1)NO [Vorinostat] (partner 1 µM) | 0.808 | 0.831 | 0.684 | 0.794 | 0.809 | 0.73 | 0.928 | 0.96 | 0.807 | 0.665 | 0.292 | 0.471 | 0.412 | 0.431 | 0.957 | 0.934 | 0.841 | 0.878 | 0.91 | 0.43 | 0.371 | 0.39 | 0.312 | 0.148 |  |  |  |  |  | 0.884 | 0.937 | 0.919 | 0.875 | 0.965
